Like-named read-outs stand apart in the source and are kept apart here.
Test system: conscious rats with partial urethral obstruction
Test: Cystometry in conscious rats obstructed by partial urethra ligature (unstable-bladder contractions)
Type: in vivo, rat
Conditions: for inhibition in vivo at 0.3 mg/kg / inhibition in vivo at 1 mg/kg / inhibition in vivo at 0.1 mg/kg: 2 min; for Amplitude of non-effective micturition contractions, After Treat. / Frequency (number) of non-effective micturition contractions, After Treat.: after treatment; for Activity as inhibitors of unstable-bladder contractions (in words): obstructed conscious rats, summary of Tables 1 and 2
Excerpt: A useful animal model system for measuring such pharmacological activity is, without limitation, cystometry in conscious rats with partial bladder-neck obstruction. […] This model is reported in the literature as related to LUTS occurring in patients having obstructive urethral syndromes (Michel, 2000, Drugs of Today. 386 (Supp. B2): 3-6)
In order to obtain a partial obstruction of the urethra, the method previously reported by Malgren (Nalgren et al., 1987, J. Urol. 137:1291-1294; 1988, Neurourol. Urodyn. 6:371), was followed with minor modifications (Guarneri et al., 1991, Pharmacol. Res. 24:263).
Female rats of the Sprague-Dawley strain [Crl:CD(SD)BR, from Charles River Italia, Calco, Como, Italy] weighing 225-275 g were used. The animals were maintained in constant temperature and humidity conditions, on a forced 12-hour light-dark cycle and with food and water ad libitum for at least one week before the experiment.
After being anaesthetized with 3 ml/kg i.p. equitensin (pentobarbital 1.215 g, chloral hydrate 5.312 g, magnesium sulphate 2.657 g, ethanol 12.5 ml, propylene glycol 49.5 ml, distilled water to 125 ml of final volume), the rats were placed in a supine position and the bladder and urethra were exposed via an incision in the shaven abdomens and gently pulling away the muscle portion. The urethra was cannulated with a polyethylene tube with an outside diameter of 1.22 mm, and the urinary bladder was then emptied and, via the cannula introduced through the urethra, filled with physiological saline. A silk (Ethicon 3/0) ligature was placed around the urethra with the cannula inside and the intraurethral cannula was then removed. The abdominal incision was sutured and, immediately after the operative procedure, antibiotic medication (penicillin G 200 000 I.U./kg i.p. and streptomycin 260 mg/kg i.p.) was performed.
Three weeks after the procedure for partially obstructing the urethra, the animals were prepared for cystometry by surgical insertion into the bladder of a catheter, through which the bladder was gradually filled.
The rats, anaesthetised with equitensin 3 ml/kg i.p., were placed in a supine position and, via an incision of about 10 mm in the abdominal wall, the urinary bladder was exposed and gently freed from surrounding tissues.
The urinary bladder was emptied manually and cannulated, via a small incision at the bladder top, with a polyethylene cannula (type PE-50, 0.58 mm I.D. ×0.96 mm O.D.), which was permanently secured to the bladder with silk thread.
The cannula was exposed through a subcutaneous tunnel in the retroscapular area, where it was fastened with a plastic adapter, in order to avoid the risk of removal by the animal. After washing the urinary bladder with physiological saline, the catheter was sealed using a small flame and the abdominal incision was sutured.
To allow evaluation of the effect of a test compound after intravenous administration, the jugular vein was cannulated with a polyethylene cannula (type PE-50, 0.58 mm I.D.×0.96 mm O.D.) filled with heparinised physiological saline. As for the bladder catheter, this cannula, too, was exteriorised, secured and sealed in the retroscapular area.
Two days after the operation, the rats, fasted overnight, were placed in Bollman's cages or in Bollman's cages modified so as to have an opening in the bottom to allow collection of urinated fluid.
After an adaptation period of 20 minutes, the free end of the bladder cannula was connected to a pressure transducer and a special apparatus which allowed infusion into the urinary bladder of physiological saline at 37° C. at a constant rate of 10 ml/hour. Intravesical pressure changes caused by bladder filling were recorded by the pressure transducer which was connected to a recording polygraph.
From the cystometrograms, the frequency and mean amplitude of spontaneous bladder contractions not inducing micturition, termed “unstable-bladder contractions” (UBC), within 2 minutes prior to micturition were evaluated. […]

[1] = obstructed rat, 0.3 mg/kg, 2 minutes before micturition, read-out: % inhibition of frequency of non-effective micturition contractions
[2] = obstructed rat, 2 minutes before micturition, read-out: % inhibition of frequency of non-effective micturition contractions
[3] = Rattus norvegicus, read-out: % inhibition of amplitude of non-effective micturition contractions
[4] = Rattus norvegicus, read-out: % inhibition of frequency of non-effective micturition contractions

SMILES | inhibition in vivo at 0.3 mg/kg [1] | inhibition in vivo at 1 mg/kg [2] | inhibition in vivo at 0.1 mg/kg [3] | inhibition in vivo at 0.3 mg/kg [3] | inhibition in vivo at 0.1 mg/kg [4] | inhibition in vivo at 0.3 mg/kg [4] | Amplitude of non-effective micturition contractions, After Treat. (0.1 mg/kg) | Frequency (number) of non-effective micturition contractions, After Treat. (0.1 mg/kg) | Amplitude of non-effective micturition contractions, After Treat. (0.3 mg/kg) | Frequency (number) of non-effective micturition contractions, After Treat. (0.3 mg/kg) | Activity as inhibitors of unstable-bladder contractions (in words) | inhibition in vivo at 0.1 mg/kg (obstructed rat, 0.1 mg/kg, 2 minutes before micturition, read-out: % inhibition of amplitude of non-effective micturition contractions) | inhibition in vivo at 0.1 mg/kg (obstructed rat, 0.1 mg/kg, 2 minutes before micturition, read-out: % inhibition of frequency of non-effective micturition contractions) | inhibition in vivo at 0.3 mg/kg (obstructed rat, 0.3 mg/kg, 2 minutes before micturition, read-out: % inhibition of amplitude of non-effective micturition contractions) | inhibition in vivo at 1 mg/kg (obstructed rat, 2 minutes before micturition, read-out: % inhibition of amplitude of non-effective micturition contractions) | Amplitude of non-effective micturition contractions, After Treat. (1.0 mg/kg) | Frequency (number) of non-effective micturition contractions, After Treat. (1.0 mg/kg)
COc1ccccc1N1CCN(CCCNC(=O)c2csc3c(=O)cc(C(F)(F)F)oc23)CC1 [Compound A, N-{3-[4-(2-methoxyphenyl)-1-piperazinyl]propyl}-7-keto-5-trifluoromethyl-7H-thieno [3,2-b]pyran-3-carboxamide] | 44% | 67% | – | – | – | – | – | – | – | – | – | – | – | – | – | – | –
COc1cc2nc(N3CCN(C(=O)c4ccco4)CC3)nc(N)c2cc1OC [Prazosin, prazosin] | – | – | 63% | 87% | 48% | 74% | 3.1 ± 0.9 mmHg | 2.8 ± 0.8 | 2.1 ± 1.5 mmHg | 2.3 ± 1.1 | marked and dose-dependent reduction | – | – | – | – | – | –
COc1cc2nc(N3CCN(C(=O)C4CCCO4)CC3)nc(N)c2cc1OC (stereo not drawn) [Terazosin, terazosin] | 65% | 93% | – | – | – | – | 6.6 ± 0.7 mmHg | 4.0 ± 0.3 | 3.7 ± 1.1 mmHg | 1.9 ± 0.5 | marked and dose-dependent reduction | 31% | 30% | 64% | 86% | 0.8 ± 0.8 mmHg | 0.3 ± 0.3

Reference: patent US20020183290A1, “Adrenergic receptor antagonists selective for both alpha1A-and alpha1D-subtypes and uses therefor” (Recordati S.A., Chemical and Pharmaceutical Company, priority 2001, published 2002)
